# PMC10047683, “A Novel Family of Lysosomotropic Tetracyclic Compounds for Treating Leukemia” (Cancers, 2023)
# Tests used:
# [1] = test system: panel of 7 AML cell lines; experiment: Dose-response viability curves, whole panel; type: cell-based; details: mean of the 7 AML cell lines; 48 h
# Description: (§1) First, 2 × 10^5 (72 h assays in cell lines (Supplementary File S1)), 3 × 10^5 (48 h assays in cell lines) or 7.5 × 10^5 (primary AML, healthy donor buffy coats) cells per mL were cultured in 96-well plates, and all drugs were added at the indicated concentrations. In α-tocopherol experiments, cells were treated with growing concentrations of α-tocopherol and EDK drugs for 48 h. In the NAC and 3MA experiments, treatment was simultaneous with EDK compounds. In glucose deprivation experiments, cells were cultivated with a standard medium (glucose high, 2 g/L), a standard medium without glucose, or a standard medium with galactose (2 g/L) and without glucose. Cell viability was measured via 7-AAD (eBioscience) exclusion and Hoechst33342 (Sigma-Aldrich, St. Louis, MO, USA) positivity staining via flow cytometry, and the cell count was obtained through volume. In the experiments with the primary cells, analyses were performed inside the blast population as detected via blast gates (CD45^low SSC^int). For solid tumor cell lines, viability was analyzed using CellTiter-Glo® Luminescent Cell Viability Assay (Promega).
# [2] = ADME-Tox: clearance / metabolic rate; type: in vitro ADME
# Description: All ADMET studies were performed in Eurofins Discovery Services (CEREP laboratories, Celle-Lévescault France). The pharmacokinetic studies were performed in Draconis Pharma SL (Barcelona, Spain) in CD-1 mice treated with 30 mg/kg EDK87 or EDK88 via SC or OG. Blood was collected by cardiac puncture at 0.5, 1, 2, 4, or 24 h.
# KG1 = experiment: Dose-response viability curves in AML cell lines; type: cell-based; details: Homo sapiens, KG-1, 48 h
# Description: as §1
# THP1 = experiment: Dose-response viability curves in AML cell lines; type: cell-based; details: Homo sapiens, THP-1, 48 h
# Description: as §1
# U937 = experiment: Dose-response viability curves in AML cell lines; type: cell-based; details: Homo sapiens, U-937, 48 h
# Description: as §1
# SKM-1 = experiment: Dose-response viability curves in AML cell lines; type: cell-based; details: Homo sapiens, 48 h
# Description: as §1
# MonoMac1 [3] = experiment: Dose-response viability curves in AML cell lines; type: cell-based; details: Mono-Mac-1, 48 h
# Description: as §1
# Kasumi-1 = experiment: Dose-response viability curves in AML cell lines; type: cell-based; details: Homo sapiens, 48 h
# Description: as §1
# HL60 [4] = experiment: Dose-response viability curves in AML cell lines; type: cell-based; details: Homo sapiens, HL-60, 48 h
# Description: as §1
# MonoMac1 [5] = experiment: Combination with ATO in AML cell lines, viability and Bliss synergy; type: cell-based; details: lower maps (MonoMac1), 48 h
# Description: as §1
# (§2) Synergy was calculated using SynergyFinder 2.0 with the Bliss reference model.
# HL60 [6] = experiment: as above; type: cell-based; details: upper maps (HL60), 48 h
# Description: as §1, §2
# [7] = test system: peripheral blood mononuclear cells from healthy donors' buffy coats; experiment: Cytotoxicity in healthy donor blood cells; type: cell-based, human; details: 72 h
# Text: Primary AML samples were obtained at diagnosis from patients diagnosed at Hospital Clínic of Barcelona (Spain) and Hospital Germans Trias i Pujol (Badalona, Spain). AML diagnosis, classification, and risk stratification were based on the latest revised WHO criteria (Supplementary Table S1). Clinical characteristics of AML patients are summarized in Supplementary Table S1. Mononuclear cells (MNCs) were isolated with Ficoll density gradient centrifugation (GE Healthcare, Chicago, IL, USA). All patients provided their written informed consent in accordance with the Declaration of Helsinki, and the study was approved by the corresponding ethics committees. Mature blood MNCs were isolated from healthy donors’ buffy coats provided by Banc de Sang i Teixits (BSiT, Barcelona, Spain). Umbilical-cord blood was provided by BSiT, and MNCs were depleted for lineage marker-positive cells using magnetic separation with the Human Lineage Cell Depletion kit (Miltenyi Biotec, North Rhine-Westphalia, Germany) following the manufacturer’s recommendations.
# as §1
compound,measurement,setting,value
CN1CCC(=C2c3ccccc3-c3c2sc2ccccc32)CC1 [EDK-87],EC50,[1],7.7 ± 0.7 µM
same,metabolic rate as compared to EDK-88,[2],higher
same,EC50,KG1,7 ± 1.2 µM
same,EC50,THP1,11.2 ± 0.01 µM
same,EC50,U937,6.9 ± 0.07 µM
same,EC50,SKM-1,8.1 ± 1.8 µM
same,EC50,MonoMac1 [3],8.6 ± 1.4 µM
same,EC50,Kasumi-1,6.3 ± 0.35 µM
same,EC50,HL60 [4],6.2 ± 0.9 µM
same,Effectivity (%Viability reduction),MonoMac1 [5]; EDK compound alone 1 µM,29%
same,Effectivity (%Viability reduction),MonoMac1 [5]; EDK compound alone 3 µM,33%
same,Effectivity (%Viability reduction),MonoMac1 [5]; EDK compound alone 10 µM,61%
same,Effectivity (%Viability reduction),HL60 [6]; EDK compound alone 1 µM,18%
same,Effectivity (%Viability reduction),HL60 [6]; EDK compound alone 3 µM,30%
same,Effectivity (%Viability reduction),HL60 [6]; EDK compound alone 10 µM,84%
same,healthy-donor blood cells affected,"[7]; 9 healthy donors, EDK-87 10 and 25 µM, EDK-88 5 and 10 µM assayed",33.2% ± 8.1
same,# Live cells refer to control,"[7]; BC sample #20, 5 µM",140%
same,# Live cells refer to control,"[7]; BC sample #20, 10 µM",113%
same,# Live cells refer to control,"[7]; BC sample #26, 5 µM",78%
same,# Live cells refer to control,"[7]; BC sample #26, 10 µM",65%
same,# Live cells refer to control,"[7]; BC sample #31, 5 µM",83%
same,# Live cells refer to control,"[7]; BC sample #31, 10 µM",56%
same,# Live cells refer to control,"[7]; BC sample #32, 5 µM",81%
same,# Live cells refer to control,"[7]; BC sample #32, 10 µM",41%
same,# Live cells refer to control,"[7]; BC sample #32, 25 µM",72%
same,# Live cells refer to control,"[7]; BC sample #41, 5 µM",77%
same,# Live cells refer to control,"[7]; BC sample #41, 10 µM",87%
same,# Live cells refer to control,"[7]; BC sample #44, 5 µM",74%
same,# Live cells refer to control,"[7]; BC sample #44, 10 µM",76%
same,# Live cells refer to control,"[7]; BC sample #44, 25 µM",80%
same,# Live cells refer to control,"[7]; BC sample #51, 5 µM",101%
same,# Live cells refer to control,"[7]; BC sample #51, 10 µM",77%
same,# Live cells refer to control,"[7]; BC sample #59, 5 µM",89%
same,# Live cells refer to control,"[7]; BC sample #59, 10 µM",41%
same,# Live cells refer to control,"[7]; BC sample #59, 25 µM",13%
same,# Live cells refer to control,"[7]; BC sample #63, 5 µM",92%
same,# Live cells refer to control,"[7]; BC sample #63, 10 µM",45%
same,# Live cells refer to control,"[7]; BC sample #63, 25 µM",22%
